# Laboratory results reported in patent US20230181678A1, “NOVEL ANTIBACTERIAL PEPTIDE OR PEPTIDE ANALOG AND USE THEREOF” (CAMP THERAPEUTICS INC., priority 2020, published 2023).
# Key:
# Assay type in all cases: cell-based
# [1] = test system: outer membrane of E. coli NDM-1; assay: Enzyme assay, outer membrane leakage (β-lactamase release, CENTA); conditions: peptide 0.63 or 1.30 uM, 37° C., 1 h; 200 μM CENTA
# Protocol: (§1) It was observed, through an enzyme assay, whether the sensitizing peptide destroyed the outer and inner membranes of Gram-negative bacteria. In the presence of the sensitizing peptide, it was observed whether in a case where 1.5 mM ONPG was used together therewith, β-galactosidase was released from E. coli ATCC 25922 for the inner membrane, and whether in a case where 200 μM CENTA was used together therewith, β-lactamase was released from E. coli NDM-1 for the outer membrane.
# Specifically, to determine leakage of the outer membrane, activity of the β-lactamase released from the outer membrane was evaluated. New Delhi metallo-β-lactamase-1 (NDm-1)-producing E. coli cells were washed three times with DPBS and suspended in the same buffer. The cells were diluted to an OD600 of 0.2 and treated with the peptide at a concentration of 0.63 or 1.30 uM at 37° C. for 1 h. After centrifugation, the supernatant was incubated with 200 μM CENTATM β-lactamase substrate at 37° C. for 1 hour. An optical density was obtained by measuring absorbance of a product of enzyme reaction at 405 nm using a microplate reader (Molecular Devices Co., Menlo Park, Calif.).
# The results are illustrated in FIGS. 12A and 12B. The y-axis is absorbance measured at 405 nm, and higher absorbance is observed as a higher amount of β-lactamase is released due to destruction of the membrane.
# [2] = test system: inner membrane of E. coli ATCC 25922; assay: Enzyme assay, inner membrane leakage (β-galactosidase release, ONPG); conditions: 1.5 mM ONPG
# Protocol: as §1
# To determine leakage of the inner membrane, release of the cytoplasmic enzyme β-galactosidase was evaluated. The bacteria were diluted to OD600=1 and 1.5 mM ONPG (O-nitrophenyl-β-D-galactopyranoside) was added. Absorbance of a product of enzyme reaction was measured at 420 nm. The other procedures were carried out in the same manner as in the experiment for outer membrane destruction.
# [3] = test system: human red blood cells (hRBC); assay: Hemolysis assay; conditions: hRBCs, 37° C., 4 hours
# Protocol: To identify toxicity of the peptides, human red blood cell (hRBC) hemolytic activity assay (hemolysis assay) was performed.
# Specifically, percent hemolysis of human red blood cells (hRBC) was determined by comparing the cells incubated in 100% deionized water (DW) as a positive control and peptide-free PBS as a negative control. hRBCs were washed 3 times with PBS using centrifugation at 500 g for 5 min, and 5% (v/v) hematocrit was suspended in PBS buffer (Hyclone). The peptide was diluted using 2-fold serial dilution with PBS, and hRBCs were added at 2.5×10^8 cells to each well. The sample was incubated at 37° C. for 4 hours. After centrifugation at 1400 rpm for 5 minutes, 180 μL of the supernatant was transferred to a transparent flat-bottom 96-well plate. An amount of hemoglobin released by the peptide was determined by measuring absorbance at 405 nm using an EPOCH2 microplate reader (BioTek, Winooski, USA).
# Hemolytic activity (%)=(absorbance of sample−absorbance of PBS)/(absorbance of 100% DW−A405 of PBS)×100
compound,measurement,setting,value
"CC[C@H](C)[C@H](NC(=O)CN)C(=O)NCC(=O)N[C@@H](C)C(=O)N[C@H](C(=O)N[C@@H](CC(C)C)C(=O)N[C@@H](CCCCN)C(=O)N[C@H](C(=O)N[C@@H](CC(C)C)C(=O)N[C@H](C(=O)N[C@H](C(=O)NCC(=O)N[C@@H](CC(C)C)C(=O)N1CCC[C@H]1C(=O)N[C@@H](C)C(=O)N[C@@H](CC(C)C)C(=O)N[C@H](C(=O)N[C@@H](CO)C(=O)N[C@@H](Cc1c[nH]c2ccccc12)C(=O)N[C@H](C(=O)N[C@@H](CCCCN)C(=O)N[C@@H](CCCNC(=N)N)C(=O)N[C@@H](CCCCN)C(=O)N[C@@H](CCCNC(=N)N)C(=O)N[C@@H](CCC(N)=O)C(=O)N[C@@H](CCC(N)=O)C(N)=O)[C@@H](C)CC)[C@@H](C)CC)[C@@H](C)O)[C@@H](C)O)C(C)C)C(C)C [melittin, reference compound]",destruction of outer membrane (β-lactamase release),[1],destroyed both the inner and outer membranes of bacteria
same,destruction of inner membrane (β-galactosidase release),[2],destroyed both the inner and outer membranes of bacteria
same,hemolytic activity,[3],exhibited hemolysis of hRBCs starting from low concentrations
